What all share (type): in vivo
For assay [1], the system named is Alopecurus myosuroides (ALOMY). The assay can be described thus: Pre-emergence herbicidal activity, glasshouse pot test. As to conditions: Alopecurus myosuroides, 480 h, evaluated after 20 days, read-out: Pre-emergence activity, ALOMY (100=total damage to plant; 0=no damage to plant); for pest or weed control at 500 g/ha: rate 500 g/ha. The essentials: (§1)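 Pots were sown in sterilised standard soil and, one day after sowing, sprayed pre-emergence with an aqueous solution of the formulated compound. Plants were grown on in a greenhouse and damage was scored after 20 days on a 0–100 scale, where 100 means total damage.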

Assay [2] deals with Avena fatua (AVEFA). The description is as above. Particulars: Avena fatua, 480 h, evaluated after 20 days, read-out: Pre-emergence activity, AVEFA (100=total damage to plant; 0=no damage to plant); for pest or weed control at 500 g/ha: rate 500 g/ha. The essentials:
as §1

In assay [3] the test system is Digitaria sanguinalis (DIGSA). The description is as above. Particulars: Digitaria sanguinalis, 480 h, evaluated after 20 days, read-out: Pre-emergence activity, DIGSA (100=total damage to plant; 0=no damage to plant); for pest or weed control at 500 g/ha: rate 500 g/ha. In short, it runs like this: as §1
The test system of assay [4] is Echinochloa crus-galli (ECHCG). The description is as above. As to conditions: Echinochloa crus-galli, 480 h, evaluated after 20 days, read-out: Pre-emergence activity, ECHCG (100=total damage to plant; 0=no damage to plant); for pest or weed control at 500 g/ha: rate 500 g/ha. The essentials:
as §1

The test system of assay [5] is Lolium perenne (LOLPE). The assay is described as above. As to conditions: Lolium perenne, 480 h, evaluated after 20 days, read-out: Pre-emergence activity, LOLPE (100=total damage to plant; 0=no damage to plant); for pest or weed control at 500 g/ha: rate 500 g/ha. In short, it runs like this: as §1
For assay [6], the system named is Setaria faberi (SETFA). The description is as above. Particulars: Setaria faberi, 480 h, evaluated after 20 days, read-out: Pre-emergence activity, SETFA (100=total damage to plant; 0=no damage to plant); for pest or weed control at 500 g/ha: rate 500 g/ha. The essentials: as §1
The test system of assay [7] is Alopecurus myosuroides (ALOMY). As to the kind of experiment: Post-emergence herbicidal activity, glasshouse pot test. Particulars: Alopecurus myosuroides, evaluated after 14 or 15 days, read-out: Post-emergence activity, ALOMY (100=total damage to plant; 0=no damage to plant); for pest or weed control at 125 g/ha: rate 125 g/ha; for pest or weed control at 500 g/ha: rate 500 g/ha. The essentials: (§2)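 Damage rated visually on a 0–100 scale (100 = total damage) 14 or 15 days after spraying. Pots of sterilised standard soil; plants treated post-emergence after 10 days glasshouse cultivation with an aqueous spray from an acetone/Emulsogen EL/N-methylpyrrolidone/dipropylene glycol monomethyl ether/X-77 formulation.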

Assay [8] relates to Avena fatua (AVEFA). The description is as above. As to conditions: Avena fatua, evaluated after 14 or 15 days, read-out: Post-emergence activity, AVEFA (100=total damage to plant; 0=no damage to plant); for pest or weed control at 125 g/ha: rate 125 g/ha; for pest or weed control at 500 g/ha: rate 500 g/ha. In short, it runs like this:
as §2

Assay [9] has as its system Digitaria sanguinalis (DIGSA). Described as above. Particulars: Digitaria sanguinalis, evaluated after 14 or 15 days, read-out: Post-emergence activity, DIGSA (100=total damage to plant; 0=no damage to plant); for pest or weed control at 125 g/ha: rate 125 g/ha; for pest or weed control at 500 g/ha: rate 500 g/ha. The essentials: as §2
Assay [10] concerns Echinochloa crus-galli (ECHCG). The assay is described as above. As to conditions: Echinochloa crus-galli, evaluated after 14 or 15 days, read-out: Post-emergence activity, ECHCG (100=total damage to plant; 0=no damage to plant); for pest or weed control at 125 g/ha: rate 125 g/ha; for pest or weed control at 500 g/ha: rate 500 g/ha. In short, it runs like this: as §2
Assay [11] concerns Lolium perenne (LOLPE). The assay is described as above. As to conditions: Lolium perenne, evaluated after 14 or 15 days, read-out: Post-emergence activity, LOLPE (100=total damage to plant; 0=no damage to plant); for pest or weed control at 125 g/ha: rate 125 g/ha; for pest or weed control at 500 g/ha: rate 500 g/ha. The essentials:
as §2

The test system of assay [12] is Setaria faberi (SETFA). Described as above. As to conditions: Setaria faberi, evaluated after 14 or 15 days, read-out: Post-emergence activity, SETFA (100=total damage to plant; 0=no damage to plant); for pest or weed control at 125 g/ha: rate 125 g/ha; for pest or weed control at 500 g/ha: rate 500 g/ha. In short, it runs like this:
as §2

In the case of `CCc1cc(C)cc(CC)c1C1=C(O)CC(C(C)(C)S(C)(=O)=O)CC1=O` (stereo not drawn) [Compound T19], the pest or weed control at 250 g/ha worked out at 70% in assay [1] (rate 250 g/ha); 70% in the assay on Avena fatua (AVEFA) [2] (rate 250 g/ha); 90% in [3] (rate 250 g/ha); 80% in [4] (rate 250 g/ha); 80% in the assay with Lolium perenne (LOLPE) [5] (rate 250 g/ha); 50% in the assay with Setaria faberi (SETFA) [6] (rate 250 g/ha). In addition, the pest or weed control at 250 g/ha (in assay [7] (rate 250 g/ha); in the assay with Avena fatua (AVEFA) [8] (rate 250 g/ha); in [9] (rate 250 g/ha); in assay [10] (rate 250 g/ha); with Lolium perenne (LOLPE) [11] (rate 250 g/ha); in the assay on Setaria faberi (SETFA) [12] (rate 250 g/ha)) was 80% throughout.

Regarding `CCCS(=O)(=O)C(C)CC1CC(=O)C(c2c(C)cc(C)cc2C)=C(O)C1` (stereo not drawn) [Compound T40], the pest or weed control at 500 g/ha amounted to 80% in assay [1]; 50% in the assay on Avena fatua (AVEFA) [2]; 50% in assay [3]; 70% in [4]; 90% in the assay on Lolium perenne (LOLPE) [5]; 60% in the assay with Setaria faberi (SETFA) [6]. Further, the pest or weed control at 125 g/ha in assay [7] is 80%; with Avena fatua (AVEFA) [8], 30%; in assay [9], 50%; in [10] it was 60%; in the assay with Lolium perenne (LOLPE) [11], 80%; in the assay with Setaria faberi (SETFA) [12], 50%.

Consider `CCc1cc(C)cc(CC)c1C1=C(O)CC(CCSC)CC1=O` (stereo not drawn) [Compound T16], for which the pest or weed control at 500 g/ha turned out to be 90% in assay [1]; 70% in the assay with Avena fatua (AVEFA) [2]; 100% in assay [3]; 90% in assay [4]; 100% in the assay with Lolium perenne (LOLPE) [5]; 100% in the assay with Setaria faberi (SETFA) [6]. The pest or weed control at 500 g/ha in [7] was 100%; in the assay on Avena fatua (AVEFA) [8], 80%; in assay [9], 100%; in assay [10], 70%; in the assay on Lolium perenne (LOLPE) [11], 90%; in the assay with Setaria faberi (SETFA) [12] it was 90%.

Take `CCc1cc(C)cc(CC)c1C1=C(OC(=O)C(C)C)CC2(CCOCC2)CC1=O` [Compound P3]: the pest or weed control at 500 g/ha (in assay [1]; with Avena fatua (AVEFA) [2]; in assay [3]; in assay [4]; in the assay with Lolium perenne (LOLPE) [5]; in the assay on Setaria faberi (SETFA) [6]) was 100% in each case. Also, the pest or weed control at 125 g/ha in [7] came to 100%; with Avena fatua (AVEFA) [8] it was 100%; in [9], 90%; in assay [10], 100%; in the assay on Lolium perenne (LOLPE) [11], 100%; in the assay with Setaria faberi (SETFA) [12], 90%.

For the molecule `CSC(C)CC1CC(=O)C(c2c(C)cc(C)cc2C)=C(O)C1` (stereo not drawn) [Compound T18], the pest or weed control at 500 g/ha in assay [1] worked out at 20%; in the assay on Avena fatua (AVEFA) [2], 10%; in [3], 60%; in [4], 70%; with Lolium perenne (LOLPE) [5], 10%; with Setaria faberi (SETFA) [6], 40%. Also, the pest or weed control at 500 g/ha in [7] was determined as 60%; in the assay on Avena fatua (AVEFA) [8], 60%; in assay [9], 80%; in [10] it was 70%; in the assay on Lolium perenne (LOLPE) [11] it was 70%; in the assay on Setaria faberi (SETFA) [12], 80%.

For `CCc1cc(C)cc(CC)c1C1=C(OC(=O)C(C)CC)CC2(CCOCC2)CC1=O` (stereo not drawn) [Compound P13], the pest or weed control at 500 g/ha (in assay [1]; with Avena fatua (AVEFA) [2]; in assay [3]; in [4]; in the assay on Lolium perenne (LOLPE) [5]; in the assay on Setaria faberi (SETFA) [6]) was 100% throughout. Further, the pest or weed control at 125 g/ha was determined as 90% in assay [7]; 100% with Avena fatua (AVEFA) [8]; 100% in assay [9]; 100% in assay [10]; 90% in the assay on Lolium perenne (LOLPE) [11]; 90% in the assay with Setaria faberi (SETFA) [12].

With `CCc1cc(C)cc(CC)c1C1=C(OC(=O)C(C)(C)C)CC(CC(C)SC(C)C)CC1=O` (stereo not drawn) [Compound P60], the pest or weed control at 500 g/ha is 80% in assay [1]; 0% in the assay with Avena fatua (AVEFA) [2]; 100% in [3]; 90% in assay [4]; 100% in the assay on Lolium perenne (LOLPE) [5]; 90% with Setaria faberi (SETFA) [6]. Besides, the pest or weed control at 125 g/ha was determined as 70% in assay [7]; 50% in the assay on Avena fatua (AVEFA) [8]; 60% in [9]; 70% in [10]; 70% with Lolium perenne (LOLPE) [11]; 60% in the assay on Setaria faberi (SETFA) [12].
